In patent US20200199102A1, “COMPOUNDS THAT PARTICIPATE IN COOPERATIVE BINDING AND USES THEREOF” (Revolution Medicines, Inc., priority 2017, published 2020):
Where a SMILES comes first, the peptide text is derived from it. [ ]: non-standard residue; d: D form. MeBmt = C/C=C/C[C@@H](C)[C@@H](O)[C@H](NC)C(=O)O; NMeY = CN[C@@H](Cc1ccc(O)cc1)C(=O)O; NMeF = CN[C@@H](Cc1ccccc1)C(=O)O; NMeI = CC[C@H](C)[C@H](NC)C(=O)O; NMeT = CN[C@H](C(=O)O)[C@@H](C)O; NMeL = CN[C@@H](CC(C)C)C(=O)O; dNMeV = CN[C@@H](C(=O)O)C(C)C; Tle = CC(C)(C)[C@H](N)C(=O)O; NMeV = CN[C@H](C(=O)O)C(C)C; NMeA = CN[C@@H](C)C(=O)O; dNMeA = CN[C@H](C)C(=O)O; Abu = CC[C@H](N)C(=O)O; Sar = CNCC(=O)O

Target: T1, Cyclophilin A (Homo sapiens, UniProt P62937)
T1 construct: made in house
Test: AlphaLISA inhibition of binding of biotinylated Cyclosporin A to FLAG tagged Cyclophilin A
Conditions: for % signal: AlphaLISA signal; for % signal / % inhibition of CsA binding to Cyclophilin A: test concentration not given; for IC50: read-out: IC50 value of CsA binding to Cyclophilin A
Source text: The binding of compounds of the invention to Cyclophilin A can be determined using the following protocol.
This protocol utilizes Perkin Elmers AlphaLISA technology platform to detect cyclosporine analogues by measuring the inhibition of binding of biotinylated Cyclosporin A to FLAG tagged Cyclophilin A.
10×TBST Buffer (Boston BioProducts IBB-181), Biotinylated Cyclosporin A (in-house), FLAG tagged Cyclophilin A (in-house); anti-FLAG Donor beads (PerkinElmer AS103) and Streptavidin Acceptor beads (PerkinElmer AL125); Compounds in DMSO (in-house), Cyclosporin A (LC Labs Cat #C-6000).
Add 20 uL of 6 nM Biotinylated CsA working stock to each well of the 96-well plate. Add 1 uL of test compound (100% DMSO) to each well of the plate using the Janus MTD head and P20 tips (except control wells). Add 1 uL of DMSO to negative control wells and 1 uL of 500 uM Cyclosporin A solution to positive control wells. In the dark, add 20 uL of combined Donor/Acceptor beads to each well. Incubate in the dark for 30 minutes at room temperature. In the dark, add 10 uL of 25 nM Flag tagged CypA working stock to each well. Incubate in the dark for 60 minutes at room temperature. Protect plate from light until reading on Biotek Synergy2 Plate Reader; Alphalisa 96-well protocol (680 excitation/615 emission).

T1 sequence (P62937 whole entry, species assumed): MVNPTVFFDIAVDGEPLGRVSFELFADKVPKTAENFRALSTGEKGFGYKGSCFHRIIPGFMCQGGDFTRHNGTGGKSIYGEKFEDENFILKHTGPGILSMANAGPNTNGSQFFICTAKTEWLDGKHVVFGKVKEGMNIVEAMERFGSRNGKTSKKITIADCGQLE

SMILES	% signal [%]	IC50 [nM]	% inhibition of CsA binding to Cyclophilin A [%]
C/C=C/C[C@@H](C)[C@@H](O)[C@H]1C(=O)N[C@@H](CC)C(=O)N(C)CC(=O)N(C)[C@H](C)C(=O)N[C@@H](C(C)(C)C)C(=O)N(C)[C@@H](C)C(=O)N[C@@H](CC(C)C)C(=O)N[C@H](C)C(=O)N(C)[C@@H](CC(C)C)C(=O)N(C)[C@@H](CC(C)C)C(=O)N(C)[C@@H](C(C)C)C(=O)N1C [Compound C71] (cyclo([MeBmt][Abu][Sar][dNMeA][Tle][NMeA]L[dA][NMeL][NMeL][NMeV]))	−0.05	< 2000	100.05
C/C=C/C[C@@H](C)[C@@H](O)[C@H]1C(=O)N[C@@H](CC)C(=O)N(C)CC(=O)N(C)[C@@H]([C@@H](C)O)C(=O)N[C@@H](C)C(=O)N(C)CC(=O)N[C@@H](C)C(=O)N[C@H](C)C(=O)N(C)[C@@H](CC(C)C)C(=O)N(C)[C@@H](CC(C)C)C(=O)N(C)[C@@H](C(C)C)C(=O)N1C [Compound C23] (cyclo([MeBmt][Abu][Sar][NMeT]A[Sar]A[dA][NMeL][NMeL][NMeV]))	1.28	< 2000	98.72
C/C=C/C[C@@H](C)[C@@H](O)[C@H]1C(=O)N[C@@H](CC)C(=O)N(C)CC(=O)N(C)[C@@H]([C@@H](C)O)C(=O)N[C@@H](C(C)C)C(=O)N(C)CC(=O)N[C@@H](C)C(=O)N[C@H](C)C(=O)N(C)[C@@H](CC(C)C)C(=O)N(C)[C@@H](CC(C)C)C(=O)N(C)[C@@H](C(C)C)C(=O)N1C [Compound C31] (cyclo([MeBmt][Abu][Sar][NMeT]V[Sar]A[dA][NMeL][NMeL][NMeV]))	−0.03	< 2000	100.03
C/C=C/C[C@@H](C)[C@@H](O)[C@H]1C(=O)N[C@@H](CC)C(=O)N(C)CC(=O)N(C)[C@@H](Cc2ccc(O)cc2)C(=O)N[C@@H](C(C)C)C(=O)N(C)[C@@H](CC(C)C)C(=O)N[C@@H](CC)C(=O)N[C@H](C)C(=O)N(C)[C@@H](CC(C)C)C(=O)N(C)[C@@H](CC(C)C)C(=O)N(C)[C@@H](C(C)C)C(=O)N1C [Compound C100] (cyclo([Abu][Sar][NMeY]V[NMeL][Abu][dA][NMeL][NMeL][NMeV][MeBmt]))	4.28	< 2000	–
C/C=C/C[C@@H](C)[C@@H](O)[C@H]1C(=O)N[C@@H](CC)C(=O)N(C)CC(=O)N(C)[C@@H]([C@@H](C)CC)C(=O)N[C@@H](CC(C)C)C(=O)N(C)[C@@H](CC(C)C)C(=O)N[C@@H](CC(C)C)C(=O)N[C@H](C)C(=O)N(C)[C@@H](CC(C)C)C(=O)N(C)[C@@H](CC(C)C)C(=O)N(C)[C@@H](C(C)C)C(=O)N1C [Compound C57] (cyclo([MeBmt][Abu][Sar][NMeI]L[NMeL]L[dA][NMeL][NMeL][NMeV]))	0.15	< 2000	99.85
C/C=C/C[C@@H](C)[C@@H](O)[C@H]1C(=O)N[C@@H](CC)C(=O)N(C)CC(=O)N(C)[C@@H](Cc2ccccc2)C(=O)N[C@@H](C(C)C)C(=O)N(C)[C@@H](CC(C)C)C(=O)N[C@@H](CC(C)C)C(=O)N[C@H](C)C(=O)N(C)[C@@H](CC(C)C)C(=O)N(C)[C@@H](CC(C)C)C(=O)N(C)[C@@H](C(C)C)C(=O)N1C [Compound C48] (cyclo([MeBmt][Abu][Sar][NMeF]V[NMeL]L[dA][NMeL][NMeL][NMeV]))	15.72	< 2000	84.28
C/C=C/C[C@@H](C)[C@@H](O)[C@H]1C(=O)N[C@@H](CC)C(=O)N(C)CC(=O)N(C)[C@@H](C(C)C)C(=O)N[C@@H](C(C)(C)C)C(=O)N(C)[C@@H](C)C(=O)N[C@@H](CC(C)C)C(=O)N[C@H](C)C(=O)N(C)[C@@H](CC(C)C)C(=O)N(C)[C@@H](CC(C)C)C(=O)N(C)[C@@H](C(C)C)C(=O)N1C [Compound C77] (cyclo([MeBmt][Abu][Sar][NMeV][Tle][NMeA]L[dA][NMeL][NMeL][NMeV]))	0.44	< 2000	–
C/C=C/C[C@@H](C)[C@@H](O)[C@H]1C(=O)N[C@@H](CC)C(=O)N(C)CC(=O)N(C)[C@@H](Cc2ccccc2)C(=O)N[C@@H](C(C)C)C(=O)N(C)[C@@H](CC(C)C)C(=O)N[C@@H](CC)C(=O)N[C@H](C)C(=O)N(C)[C@@H](CC(C)C)C(=O)N(C)[C@@H](CC(C)C)C(=O)N(C)[C@@H](C(C)C)C(=O)N1C [Compound C96] (cyclo([Abu][Sar][NMeF]V[NMeL][Abu][dA][NMeL][NMeL][NMeV][MeBmt]))	5.00	< 2000	95.00
C/C=C/C[C@@H](C)[C@@H](O)[C@H]1C(=O)N[C@@H](CC)C(=O)N(C)CC(=O)N(C)[C@@H]([C@@H](C)CC)C(=O)N[C@@H](C(C)(C)C)C(=O)N(C)[C@@H](C)C(=O)N[C@@H](CC(C)C)C(=O)N[C@H](C)C(=O)N(C)[C@@H](CC(C)C)C(=O)N(C)[C@@H](CC(C)C)C(=O)N(C)[C@@H](C(C)C)C(=O)N1C [Compound C69] (cyclo([MeBmt][Abu][Sar][NMeI][Tle][NMeA]L[dA][NMeL][NMeL][NMeV]))	0.03	< 2000	99.97
C/C=C/C[C@@H](C)[C@@H](O)[C@H]1C(=O)N[C@@H](CC)C(=O)N(C)CC(=O)N(C)[C@H](C(C)C)C(=O)N[C@@H](C(C)(C)C)C(=O)N(C)[C@@H](C)C(=O)N[C@@H](CC(C)C)C(=O)N[C@H](C)C(=O)N(C)[C@@H](CC(C)C)C(=O)N(C)[C@@H](CC(C)C)C(=O)N(C)[C@@H](C(C)C)C(=O)N1C [Compound C79] (cyclo([MeBmt][Abu][Sar][dNMeV][Tle][NMeA]L[dA][NMeL][NMeL][NMeV]))	3.24	< 2000	96.76
C/C=C/C[C@@H](C)[C@@H](O)[C@H]1C(=O)N[C@@H](CC)C(=O)N(C)CC(=O)N(C)[C@H](C)C(=O)N[C@@H](C(C)C)C(=O)N(C)[C@@H](C)C(=O)N[C@@H](C)C(=O)N[C@H](C)C(=O)N(C)[C@@H](CC(C)C)C(=O)N(C)[C@@H](CC(C)C)C(=O)N(C)[C@@H](C(C)C)C(=O)N1C [Compound C3] (cyclo([MeBmt][Abu][Sar][dNMeA]V[NMeA]A[dA][NMeL][NMeL][NMeV]))	13.43	< 2000	86.57
C/C=C/C[C@@H](C)[C@@H](O)[C@H]1C(=O)N[C@@H](CC)C(=O)N(C)CC(=O)N(C)[C@@H]([C@@H](C)O)C(=O)N[C@@H](C(C)C)C(=O)N(C)[C@@H](CC(C)C)C(=O)N[C@@H](CC(C)C)C(=O)N[C@H](C)C(=O)N(C)[C@@H](CC(C)C)C(=O)N(C)[C@@H](CC(C)C)C(=O)N(C)[C@@H](C(C)C)C(=O)N1C [Compound C51] (cyclo([MeBmt][Abu][Sar][NMeT]V[NMeL]L[dA][NMeL][NMeL][NMeV]))	3.38	< 2000	96.62
C/C=C/C[C@@H](C)[C@@H](O)[C@H]1C(=O)N[C@@H](CC)C(=O)N(C)CC(=O)N(C)CC(=O)N[C@@H](C(C)C)C(=O)N(C)[C@@H](CC(C)C)C(=O)N[C@@H](CC(C)C)C(=O)N[C@H](C)C(=O)N(C)[C@@H](CC(C)C)C(=O)N(C)[C@@H](CC(C)C)C(=O)N(C)[C@@H](C(C)C)C(=O)N1C [Compound C49] (cyclo([MeBmt][Abu][Sar][Sar]V[NMeL]L[dA][NMeL][NMeL][NMeV]))	19.41	< 2000	80.59
C/C=C/C[C@@H](C)[C@@H](O)[C@H]1C(=O)N[C@@H](CC)C(=O)N(C)CC(=O)N(C)[C@@H](C)C(=O)N[C@@H](C(C)C)C(=O)N(C)[C@@H](CC(C)C)C(=O)N[C@@H](CC)C(=O)N[C@H](C)C(=O)N(C)[C@@H](CC(C)C)C(=O)N(C)[C@@H](CC(C)C)C(=O)N(C)[C@@H](C(C)C)C(=O)N1C [Compound C94] (cyclo([Abu][Sar][NMeA]V[NMeL][Abu][dA][NMeL][NMeL][NMeV][MeBmt]))	3.71	< 2000	96.29
C/C=C/C[C@@H](C)[C@@H](O)[C@H]1C(=O)N[C@@H](CC)C(=O)N(C)CC(=O)N(C)[C@@H](Cc2ccccc2)C(=O)N[C@@H](CC(C)C)C(=O)N(C)[C@@H](CC(C)C)C(=O)N[C@@H](CC(C)C)C(=O)N[C@H](C)C(=O)N(C)[C@@H](CC(C)C)C(=O)N(C)[C@@H](CC(C)C)C(=O)N(C)[C@@H](C(C)C)C(=O)N1C [Compound C60] (cyclo([MeBmt][Abu][Sar][NMeF]L[NMeL]L[dA][NMeL][NMeL][NMeV]))	52.68	< 2000	47.32
